Legend:
[1] = Generation of singlet oxygen (luminescence at 1270 nm); assay type: physicochemical; details: air saturated buffer solution, room temperature
Experimental: Based on new Hamamatsu FEU with InP/InGaAsP semi-conductor photocathodes, a highly sensitive laser fluorometer for registration of luminescence signals in the range of 950-1400 nm with nanosecond time resolution was used.
Photoresponse of this process (φΔ) was measured by a relative method through integral intensity of singlet oxygen luminescence at a wavelength of 1270 nm. Excitation was conducted at a wavelength of 531 nm (pulse energy 4 microJ, frequency 1kHz). Tests were made in air saturated buffer solutions at room temperature. […] The φΔ in D2O was considered as 0.7.
To analyze kinetic curves of singlet oxygen luminescence, the following function was used:
wherein A is a coefficient depending on initial concentrations of interacted reagents, and k1 and k2 are constants of luminescence signal increase and extinction, respectively.
In the case when the deactivation rate constant Kτ of the photosensitizer triplet state exceeds the deactivation rate constant KΔ of the molecular oxygen […] state, the constant of increase k1 corresponds to Kτ, and constant of extinction k2 corresponds to KΔ. In the case of Kτ<KΔ, inversion of the kinetics of singlet oxygen luminescence occurs. In this case, k2=Kτ and k1=KΔ. […] Thus, based on kinetic data, the life times of singlet oxygen and triplet state can be calculated.

Hela cells = assay: Accumulation in Hela cells; assay type: cell-based; details: for concentration in Hela cells: 2×10^−7 M/l, 37° C.
Experimental: The cellular accumulation and the targeted delivery of the photoactive compounds were investigated using Hela cells, which is one of the numerous tumor cell types that overexpress folate receptors.
Cells were cultivated for 3 days in medium 199, and transferred to Hank's solution/medium 199 (9/1). After 3 hours, the cell were collected by trypsin treatment from the substrate and placed in Hank's solution (10^5 κπ/ml). To cell suspensions, chlorin e6 conjugates were added at a concentration of 2×10^−7 M/l, and incubated at 37° C. After 1, 5, 10, 15, and 24 hours, the samples were centrifuged, the pellet was washed with the cooled Hank's solution, and transferred to Hank's solution at a concentration being equal to that in the initial suspension.

HeLa cell culture = assay: Phototoxicity (photodynamic activity), 3.5 h incubation, 3.3 joule/cm^2; assay type: cell-based; design: number of HELA cells (relative to the control): unit not given here; details: for number of HELA cells (relative to the control): incubation 3.5 hours
Experimental: To examine the photodynamic effects of a photosensitizer on a HeLa cell culture, the photosensitizer solution was added to the nutrient media at a final concentration of 0.1, 0.5, 1.0, 5.0 or 10 mcg/ml on day 3 after transplanting the cell culture into flasks. The flasks were wrapped with a light protecting cover, and incubated at 37° C. for 3.5 hours. Then, the cells were washed with Hank's solution, and exposed on ice by a laser medical device “LD 680-2000” (wavelength: 670-690 nm) at a dose of 3.3 joule/cm^2. After 20-24 hours, the available cell monolayer was dispersed using a 0.02%-Versene solution, and the number of tumor cells was calculated in Goriaev's chamber. For each point, 3 flasks were used.

[2] = Photophysical parameters (triplet state, intercombinative conversion); assay type: physicochemical
Experimental: Values of ? and ? were determined after substantially transferring of all molecules of the studied substance in excited triplet state. In such conditions, ΔD=C Δε^Tl, wherein C indicates the molar concentration of the substance in solution, and l indicates the length of the optical way. As the standard to estimate γ, Pd(II)-octa ethyl porphyrin (Pd(II)-OEP) was selected, for which the γ value in benzol was considered as equal to one.

[γ-(6-aminohexyl)folic acid]-chlorin e6 [chlorin e6 conjugate]
τt (life time in the triplet state) from singlet oxygen luminescence kinetics [1]: 2.0±0.2 microsec. | τΔ (life time of singlet oxygen) from luminescence kinetics [1]: 3.6±0.2 microsec. | concentration in Hela cells (Hela cells; incubation time 1 hours): 0.40 relative units/10^4cl. | concentration in Hela cells (Hela cells; incubation time 5 hours): 1.80 relative units/10^4cl. | concentration in Hela cells (Hela cells; incubation time 10 hours): 2.50 relative units/10^4cl. | concentration in Hela cells (Hela cells; incubation time 15 hours): 12.5 relative units/10^4cl. | concentration in Hela cells (Hela cells; incubation time 24 hours): 15.0 relative units/10^4cl. | kinetic of binding with cells (Hela cells; Hela cells): increases linearly over 20 hours | inhibition of proliferation of Hela cells (HeLa cell culture; concentration of 5-10 mcg/ml, photoexposure): fully inhibited | number of HELA cells (relative to the control) (HeLa cell culture; photoexposure 3.3 joule/cm^2, conc. 0.1 mcg/ml): 65.1 | number of HELA cells (relative to the control) (HeLa cell culture; photoexposure 3.3 joule/cm^2, conc. 0.5 mcg/ml): 42.3 | number of HELA cells (relative to the control) (HeLa cell culture; photoexposure 3.3 joule/cm^2, conc. 1.0 mcg/ml): 12.6 | number of HELA cells (relative to the control) (HeLa cell culture; photoexposure 3.3 joule/cm^2, conc. 5.0 mcg/ml): 0.1 | τt (lifetime of excited triplet state, oxygen saturated) ([2]; H2O, pH 8.1): 2.5 μs | τt^0 (lifetime of excited triplet state, deoxygenated) ([2]; H2O, pH 8.1): 170 μs | τt (lifetime of excited triplet state, oxygen saturated) ([2]; HSA, H2O, pH 8.1): 14.7 μs | τt^0 (lifetime of excited triplet state, deoxygenated) ([2]; HSA, H2O, pH 8.1): 700 μs | τt (lifetime of excited triplet state, oxygen saturated) ([2]; Liposomes, H2O, pH 8.1): 1.4 μs | τt^0 (lifetime of excited triplet state, deoxygenated) ([2]; Liposomes, H2O, pH 8.1): 70 μs | γ (photoresponse of intercombinative conversion) ([2]; Liposomes, H2O, pH 8.1, standard Pd(II)-OEP): 078 | τt (lifetime of excited triplet state, oxygen saturated) ([2]; Pyridine): 0.3 μs | τt^0 (lifetime of excited triplet state, deoxygenated) ([2]; Pyridine): 140 μs | τt (lifetime of excited triplet state, oxygen saturated) ([2]; Triton X-100): 2.6 μs | τt^0 (lifetime of excited triplet state, deoxygenated) ([2]; Triton X-100): 230 μs

Source: patent publication US20120035180A1, “PHARMACEUTICAL COMPOSITION FOR TREATING CANCER COMPRISING CHLORIN E6-FOLIC ACID CONJUGATE COMPOUND AND CHITOSAN” (priority 2009, published 2012)
